In one series the target is RNA-polymerase II (Homo sapiens, UniProt P24928). The note with it: not covalently bound; read-out: KD of complex between amanitin and RNA-polymerase II; cited from earlier work.
The next series relates to BxPC-3 tumor xenografts. Kind of series: BxPC-3 xenograft mouse tumor model. It is filed as in vivo, NOD/SCID mice. The protocol: (§1) Five- to six-week old immunodeficient NOD/SCID mice were used for all experiments. BxPC-3 pancreatic or PC-3 prostate tumor cells (5×10^6 in 100 pi PBS) were transplanted subcutaneously to the right flank of the mice. Ten days later, when BxPC-3 tumors reached a volume of 30-80 mm^3 and PC-3 tumors reached a volume of 40-190 mm^3, the treatment was initiated. Animals received either control huHEA125 mAb at a dose of 15 mg/kg or huHEA125-amanitin conjugate (huHEA125-Ama) at a dose of 50 μg/kg of amanitin. Antibody and conjugate were administered as a single intraperitoneal injection.
(§2) Tumor growth was monitored for 16 days after initiation of the treatment. Tumor size was measured externally every third day using a caliper. Tumor volume was calculated according to the formula: V=π/6*a*b*c, where a, b and c are diameters in three dimensions. Data are presented as a relative tumor size/volume increase from the time of antibody administration.

Another series concerns PC-3 tumor xenografts. Kind of series: PC-3 xenograft mouse tumor model. It counts as in vivo, NOD/SCID mice. As to the method: as §1, §2
In series [1] the target is T1, epithelial cell adhesion molecule (EpCAM) (human, UniProt P16422 24-314).
T1 construct: whole, on cells; also called CD326; EpCAM antigen
T1 sequence (looked up): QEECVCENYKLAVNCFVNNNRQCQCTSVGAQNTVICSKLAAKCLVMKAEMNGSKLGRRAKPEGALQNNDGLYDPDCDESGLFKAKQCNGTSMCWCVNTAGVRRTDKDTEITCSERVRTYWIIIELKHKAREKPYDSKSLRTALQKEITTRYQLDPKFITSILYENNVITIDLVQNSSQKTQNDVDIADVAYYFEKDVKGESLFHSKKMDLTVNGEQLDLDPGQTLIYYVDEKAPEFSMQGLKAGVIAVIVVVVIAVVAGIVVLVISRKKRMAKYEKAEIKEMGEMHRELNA
Kind of series: binding to EpCAM-expressing cells; method not stated.

Setting [2] is: 50 μg/kg of amanitin, single i.p. injection, BxPC-3.
Where [3] appears, read: 50 μg/kg of amanitin, single i.p. injection, PC-3 tumor bearing mice.

The source of these data is patent US20120213805A1, “Amatoxin-Armed Tartget-Binding Moieties for the Treatment of Cancer” (priority 2009, published 2012).

As a reminder, the Kd is the equilibrium constant for the complex coming apart. For the molecule amanitin, the Kd at RNA-polymerase II is 3 nM.

On to “α-Amanitin-glutarate-huHEA125 [huHEA125-amanitin]”, for which, in the series with BxPC-3 tumor xenografts (setting [2]), the “day from which tumor volume regressed dramatically” value turned out to be 7 days, the “mice responding to treatment” value is recorded as “All mice responded to treatment” and the tumor growth result is “strongly inhibited”. Moreover, in the series with BxPC-3 tumor xenografts (50 μg/kg of amanitin, single i.p. injection, BxPC-3 tumor bearing mice), the “body weight of the mice” value is “neither a decrease in body weight”. Moreover, the “mice with tumor completely eradicated” value in the series with BxPC-3 tumor xenografts (50 μg/kg of amanitin, single i.p. injection, day 16, BxPC-3) is 50%. Also, the tolerability result in the series with BxPC-3 tumor xenografts (50 μg/kg of amanitin, single intraperitoneal injection, BxPC-3 tumor bearing mice) is given as “well tolerated”. The tumor growth entry in the series on PC-3 tumor xenografts (50 μg/kg of amanitin, single i.p. injection, PC-3) is “strongly retarded”. Moreover, in the series with PC-3 tumor xenografts (setting [3]), the “body weight of the mice” value was “No decrease in the body weight” and the tolerability result was “well tolerated”.

Regarding “huHEA125: chimeric anti-EpCAM antibody: mouse HEA125 variable domains with human kappa constant light chain and human IgG1 constant heavy chain”, the tumor volume increase result with BxPC-3 tumor xenografts (15 mg/kg single i.p. injection, day 16, BxPC-3, FIG. 9) is on record as “approximately 880%”; with PC-3 tumor xenografts (15 mg/kg single i.p. injection, day 10, PC-3, FIG. 10) it was “approximately 550%”.

B1: chimeric antibody huHEA125 (antibody, human IgG1, kappa, V domains shown)
VH: EVKLLESGGGLVQPGGSLKLSCAASGFDFSRFWMTWVRQAPGKGLEWIGEINLDSSTINYTPSLKDKFIISRDNAKNTLFLQMSKVRSEDTALYYCSRGISMDYWGQGTSVTVSS
VL: DILLTQSPAILSVSPGERVSFSCRASQSIGISLHWYQQRPSDSPRLLIKYASESISGIPSRFSGSGSGTDFTLSINSVESEDIADYYCQQSNIWPTTFGAGTKLELKR
notes: also called unmodified huHEA125 antibody; non-conjugated huHEA125 antibody
B1 had a Kd in series [1] of 2.2 nM.
